Measured values from patent publication US7531575B2, “Method of modulating cellular activity and agents useful for same” (Eberhard-Karls-Universität Tübingin, priority 2002, dated 2009).

Legend:
Type in all cases: cell-based, murine
iNOS [1] = assay: iNOS activity by Griess assay (nitrite formation), LPS-stimulated N9 microglia; conditions: N9 cells
Excerpt: (§1) TNL was a generous gift of Kissei Pharmaceuticals, LPC (Escherichia coli, 0127:BS), phorbol 12-myristate 13-acetate (PMA) and dexamethasone (DEX) were obtained from Sigma, BAY 11-7082 (BAY), NF-κB SN50 inhibitory peptide (SN50), GF 109203X (GFX) and rottlerin (ROT) were purchased from Biomol. PD098059 (PD) was obtained from Calbiochem. Purified murine interferon-γ (IFN-γ) was purchased from Roche Diagnostics. N9 murine microglial cells were a kind gift from P. Ricciardi-Castagnoli (Righi, M. et al. 1989 supra). Cells were cultured in Dulbecco's modified Eagle's medium (DMEM) supplemented with 10% fetal calf serum (FCS), 2 mM glutamine, penicillin (100 unit/mL) and streptomycin (100 μg/mL) and maintained at 37° in an atmosphere of 5% CO2. Viability was assessed by crystal violet staining.
iNOS activity was assessed by the Griess assay (Platten, M., Wick, W., Wischhusen, J. and Weller, M. Br J Pharmacol 134(6):1279-1284, 2001). Briefly, conditioned supernatant was incubated with an equal volume of Griess reagent containing 1% sulphanilamide, 0.1% naphthylethylenediamine dihydrochloride and 2.5% H3PO4 (Green, L. C., Wagner, D. A., Glogowski, J., Skipper, P. I., Wishnok, J. S, and Tannenbaum, S. R. Anal. Biochem., 126:131-138, 1982) for 5 min. at room temperature. The absorbance was measured at 546 nm. NaNO2 diluted in DMEM served as a standard. To control for cell number, the cells were stained with crystal violet. iNOS activity is expressed as nitrite accumulated in 48 hr/10^5 cells.

iNOS [2] = assay: iNOS protein immunoblot, LPS-stimulated N9 microglia
Excerpt: as §1
For the preparation of whole cell lysates, the cells were lysed in 0.1 M Tris-HCl (pH 7.2) containing 0.1% NP40, 0.1 mM EDTA and 5 μg/mL phenylmethylsulphonyl fluoride. Twenty micrograms protein was separated by 10-12% SDS-PAGE and electroblotted on nitrocellulose membrane. Equal loading was controlled by Ponceau S staining. Immunodetection was performed using the following antibodies: anti-iNOS rabbit polyclonal antibody (1:1000, Cayman), antiphospho-IκBα mouse monoclonal antibody (1:1000), anti-PKCδ mouse monoclonal antibody (1:2000), antiphospho-MARCKS rabbit polyclonal antibody (1:1000), antiphospho-ERK-1/2, antiphospho-AKT, antiphospho-p38 mouse monoclonal antibodies (1:2000), anti-ERK-1/2, anti-AKT mouse monoclonal antibodies (1:500, all from Signal Transduction Laboratories). Bands were visualized using horseradish peroxidase-conjugated anti-rabbit IgG (1:4000 SantaCruz) or anti-mouse IgG (1:4000, Amersham).

iNOS [3] = assay: iNOS activity by Griess assay (NO2 release), IFN-γ-stimulated N9 microglia; conditions: N9 cells, IFN-γ 200 u ml, 48 h, dexamethasone 500 nM
Description: Tranilast was a generous gift of Kissei Pharmaceuticals (Nagano, Japan). Murine recombinant IFN-γ was purchased from Boehringer (Mannheim, Germany). Dexamethasone (DEX) was obtained from Sigma (Deisenhofen, Germany). N9 murine microglial cells were a kind gift from P. Ricciardi-Castagnoli (Milano, Italy) (Righi, M., Mori, L., De Libero, G., Sironi, M., Biondi, A., Mantovani, A., Donini, S. D. and Ricciardi-Castagnoli, P. Eur J Immunol 19(8):1443-1448, 1989). The cells were cultured in Dulbecco's modified Eagle's medium (DMEM) supplemented with 10% foetal calf serum (FCS), 2 mM glutamine and penicillin ([…])/streptomycin (100 μg ml), and maintained at 37° C. in an atmosphere of 5% CO2. Viability was assessed by crystal violet staining.
iNOS activity was assessed by the Griess assay as described elsewhere (Rieger, J., Stander, M., Loschmann, P. A., Heneka, M., Dichgans, J., Klockgether, T. and Weller, M., Oncogene, 17:2323-2332, 1998). Briefly, conditioned supernatant (100 μl) was incubated with an equal volume of 1% sulphanilamide/0.1% naphthyl ethylene diamine dihydrochloride/2.5% H3PO4 (Griess reagent) (Green, L. C., Wagner, D. A., Glogowski, J., Skipper, P. I., Wishnok, J. S, and Tannenbaum, S. R., Anal. Biochem., 126:131-138, 1982), incubated for 5 min at room temperature, and the absorbance at […] determined. Solutions of NaNO2 diluted in DMEM served as standards. The absorbance readings resulting from DMEM alone were subtracted from the sample values. Cell density was assessed using crystal violet staining to control for differences in cell proliferation. iNOS activity is thus expressed here as NO2 accumulated per 48 h per 10^5 cells.

PKCδ = PKCδ immunoblot after long-term PMA in N9 microglia; conditions: N9 cells, PMA 100 nM, 24 hr treatment, data not shown
Excerpt: as §1
(§2) For the preparation of whole cell lysates, the cells were lysed in 0.1 M Tris-HCl (pH 7.2) containing 0.1% NP40, 0.1 mM EDTA and 5 μg/mL phenylmethylsulphonyl fluoride. Twenty micrograms protein was separated by 10-12% SDS-PAGE and electroblotted on nitrocellulose membrane. Equal loading was controlled by Ponceau S staining. […]

ERK-1/2 = assay: phospho-ERK-1/2 immunoblot after PKC depletion, LPS-stimulated N9 microglia; conditions: N9 cells, prolonged pretreatment with PMA 100 nM 24 hr, then LPS 10 μg/mL
Excerpt: as §1, §2

## COc1cccc(-c2cc(=O)c3ccccc3o2)c1N [PD]
iNOS [1]; LPS, 40 μM PD, vehicle-treated cells 16.6±0.3
  LPS-mediated nitrite formation: 10.7±0.4 μM/10^4 cells/48 hr

## Cc1ccc(S(=O)(=O)/C=C/C#N)cc1 [BAY]
iNOS [1]; LPS, BAY 20 μM, vehicle-treated cells 14.6±1.0
  LPS-stimulated NO release: 11.1±0.7 μM/10^4 cells/48 hr

## CC(=O)c1c(O)c(C)c(O)c(Cc2c(O)c3c(c(C(=O)/C=C/c4ccccc4)c2O)OC(C)(C)C=C3)c1O [ROT, rottlerin]
iNOS [2]; N9 cells, LPS 10 μg/mL 24 hr, ROT at concentrations as low as 5 μM
  iNOS protein accumulation after LPS: strongly inhibited

## CN(C)CCCn1cc(C2=C(c3c[nH]c4ccccc34)C(=O)NC2=O)c2ccccc21 [GFX]
iNOS [2]; PMA 100 nM 15 min, LPS 10 μg/mL 24 hr, GFX 2 μM
  PMA superinduction of iNOS protein in LPS-stimulated cells: abolished

## C[C@@H]1C[C@H]2[C@@H]3CCC4=CC(=O)C=C[C@]4(C)[C@@]3(F)[C@@H](O)C[C@]2(C)[C@@]1(O)C(=O)CO [dexamethasone]
iNOS [3]
  reduction of the amount of NO2 (Griess assay): 75%

## CCCCCCCCCCCCCC(=O)O[C@@H]1[C@@H](C)[C@@]2(O)[C@@H](C=C(CO)C[C@]3(O)C(=O)C(C)=C[C@@H]23)[C@@H]2C(C)(C)[C@]12OC(C)=O [PMA, phorbol 12-myristate 13-acetate]
iNOS [2]; N9 cells, 24-hr exposure to PMA 100 nM, then LPS 10 μg/mL for 24 hr
  reduction of iNOS protein (densitometry): 80%
iNOS [2]; N9 cells, PMA 100 nM pretreatment 15 min, LPS 10 μg/mL, 24 hr
  LPS-mediated iNOS protein expression: superinduction
iNOS [2]; N9 cells, PMA 100 nM, no LPS
  iNOS protein expression in the absence of LPS: did not induce
iNOS [1]; PMA 100 nM pretreatment 15 min, LPS 10 μg/mL, 48 hr
  LPS-mediated nitrite formation: superinduction
PKCδ
  PKCδ protein level: effectively depleted
ERK-1/2
  LPS-induced ERK-1/2 phosphorylation: failed to induce
